# Literature values, collected in US20250163027A1, “GPR88-RECEPTOR-AGONIST” (Boehringer Ingelheim International GmbH, priority 2023, published 2025).
# Target: hGPR88 receptor (Homo sapiens, UniProt Q9GZN0)
# Details: value marked * : cAMP assay, not BRET
# hGPR88 receptor, sequence (Q9GZN0 whole entry): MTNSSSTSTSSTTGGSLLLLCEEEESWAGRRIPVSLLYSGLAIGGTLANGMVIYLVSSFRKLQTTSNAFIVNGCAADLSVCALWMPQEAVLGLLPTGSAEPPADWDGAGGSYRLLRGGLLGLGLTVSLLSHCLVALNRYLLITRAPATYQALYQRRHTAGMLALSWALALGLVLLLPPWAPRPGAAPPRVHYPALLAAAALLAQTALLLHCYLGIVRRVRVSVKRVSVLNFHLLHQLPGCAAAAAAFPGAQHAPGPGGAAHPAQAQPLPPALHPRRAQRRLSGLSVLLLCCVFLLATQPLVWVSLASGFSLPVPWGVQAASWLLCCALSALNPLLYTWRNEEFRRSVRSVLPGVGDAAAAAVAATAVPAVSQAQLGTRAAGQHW
compound,measurement,value
COCc1ccc(-c2ccc(N(CC(C)(C)O)C(=O)C3CC3c3ccccn3)cc2)cc1 (stereo not shown) [Ex 141 in WO2022/129933],EC50,> 5 µM
